# Structures can show the parent of a compound that is named as a salt.
# Tests used:
# [1] = test system: thromboplastin clotting time in human plasma; assay: prothrombin time test (thromboplastin clotting time in human plasma); format: biochemical; details: 37° C., human plasma
# Method: Briefly, to 0.1 ml of each of human plasma, normal saline and thromboplastin was added 0.03 ml of the test compound of the present invention (2 mg/ml in 50 percent methanol). The clotting time was measured at 37° C. with a Fibrometer.
# ^a Expressed in seconds
# ^b Concentration of compound tested in micrograms per milliliter of […]
# Candida albicans A26 = assay: in vitro antifungal activity, Candida albicans (MIC); format: cell-based; details: 35° C., 48 hours, RPMI 1640 plus 10% fetal calf serum, 95-100% inhibition of growth, read-out: minimum inhibitory concentration (MIC), C.a.
# Method: (§1) The antifungal activity was assayed in vitro against Candida abicans A26, Trichophyton mentagrophytes CDC27, and Aspergillus flavus M152. The inocula, previously frozen under liquid nitrogen in a lactose, glycerol and water solution, were standardized by counting spores with a hemocytometer. Final concentrations (C. albicans, 1×10^5 cells/m; T. mentagrophytes, 1×10^6 cells/ml; A. flavus, 1×10^5 cells/ml) in RPMI 1640 plus 10% fetal calf serum were added to each of the 96 wells of a microtiter plate (100 μl/well).The compounds to be tested were solubilized in either water or ethanol and added to the microtiter wells in serial dilutions to give final concentrations in the range 0.039-20 μg/ml. The plates were incubated at 35° C. for 48 hours. The minimum inhibitory concentration (MIC) values were determined as the highest dilution showing 95-100% inhibition of growth.
# (§2) ^a Minimum inhibitory concentration expressed in μg/ml
# ^b C.a. means Candida albicans A26
# Aspergillus flavus M152 = assay: in vitro antifungal activity, Aspergillus flavus (MIC); format: cell-based; details: 35° C., 48 hours, RPMI 1640 plus 10% fetal calf serum, 95-100% inhibition of growth, read-out: minimum inhibitory concentration (MIC), A.f.
# Method: as §1, §2
# ^c A.f. means Aspergillus flavus M152
# [2] = test system: Trichophyton mentagrophytes CDC27; assay: in vitro antifungal activity, Trichophyton mentagrophytes (MIC); format: cell-based; details: 35° C., 48 hours, RPMI 1640 plus 10% fetal calf serum, 95-100% inhibition of growth, read-out: minimum inhibitory concentration (MIC), T.m.
# Method: as §1, §2
# ^d T.m. means Trichophyton mentagrophytes CDC27
# solubility in methanol = format: physicochemical
# [3] = 22 micrograms per milliliter of plasma
# [4] = 45 micrograms per milliliter of plasma
# [5] = 90 micrograms per milliliter of plasma
# [6] = 180 micrograms per milliliter of plasma
Compound,MIC (Candida albicans A26) [µg/mL],MIC (Aspergillus flavus M152) [µg/mL],MIC [2] [µg/mL],solubility in methanol (solubility in methanol),plasma prothrombin time ([1]; 11 micrograms per milliliter of plasma) [s],"plasma prothrombin time [1, 3] [s]","plasma prothrombin time [1, 4] [s]","plasma prothrombin time [1, 5] [s]","plasma prothrombin time [1, 6] [s]"
"CCCCCCCOc1ccc(CC(CN)c2ccc(OC)cc2)cc1 (stereo not drawn) [Example 21, 4-(Heptyloxy)-β-(4-methoxy)phenylbenzenepropanamine]",–,–,–,insoluble,–,–,–,–,–
"Cl.NCC(Cc1cccc2ccccc12)c1ccccc1 (stereo not drawn) [Example 22, β-Phenyl-1-naphthalenepropanamine hydrochloride]",20,10,10,–,–,–,–,–,> 300
"CCCCOc1ccc(CCC(C)N(C)C)cc1 (stereo not drawn) [Example 41, 4-Butoxy-N,N,α-trimethylbenzenepropanamine hydrochloride]",0.156,1.25,0.078,–,–,–,21,24,41
CCCS(=O)(=O)Oc1ccc(CCC(C)N(C)C)cc1 (centres unmarked) [Example 67],20,20,> 20,–,–,–,–,–,–
"CCCCOc1ccc(CCC(C)N(C)CC)cc1 (stereo not drawn) [Example 68, 4-Butoxy-N-ethyl-N,α-dimethylbenzenepropanamine hydrochloride]",0.625,0.625,1.25,–,–,–,–,–,–
"CCCCOc1ccc(CCC(C)N2CC(C)OC(C)C2)cc1 (centres unmarked) [Example 69, 4-[3-(4-Butoxyphenyl)-1-methylpropyl]-2,6-dimethylmorpholine hydrochloride]",> 20,> 20,1.25,–,–,–,–,–,–
"CCCCOc1ccc(CCC(CC)N(C)C)cc1 (stereo not drawn) [Example 70, 4-Butoxy-α-ethyl-N,N-dimethylbenzenepropanamine hydrochloride]",0.156,10,0.156,–,–,–,–,–,–
"COc1ccc(CC(c2ccccc2)C(C)N)cc1OCC1CCCCC1 (stereo not drawn) [Example 71, 3-(Cyclohexylmethoxy)-4-methoxy-α-methyl-β-phenylbenzenepropanamine hydrochloride]",20,10,10,–,–,–,–,–,–

# The next lines start with results.
MIC (Candida albicans A26) [µg/mL],MIC (Aspergillus flavus M152) [µg/mL],MIC [2] [µg/mL],solubility in methanol (solubility in methanol),Compound,plasma prothrombin time ([1]; 11 micrograms per milliliter of plasma) [s],"plasma prothrombin time [1, 3] [s]","plasma prothrombin time [1, 4] [s]","plasma prothrombin time [1, 5] [s]","plasma prothrombin time [1, 6] [s]"
10,10,10,–,"CCCCCCOc1ccc(CC(CN)c2ccccc2)cc1 (stereo not drawn) [Example 1, 4-(Hexyloxy)-β-phenylbenzenepropanamine]",32,43,91,> 300,> 300
20,10,20,–,"CCCCCCCCOc1ccc(CC(CN)c2ccccc2)cc1 (stereo not drawn) [Example 2, 4-(Octyloxy)-β-phenylbenzenepropanamine]",–,38,79,> 300,> 300
10,5,5,–,"CCCCCOc1ccc(CC(CN)c2ccccc2)cc1.Cl (stereo not drawn) [Example 4, 4-(Pentyloxy)-β-phenylbenzenepropanamine hydrochloride]",–,–,37,91,> 300
10,5,5,–,"CCCCOc1ccc(CC(CN)c2ccccc2)cc1.Cl (stereo not drawn) [Example 6, 4-(Butyloxy)-β-phenylbenzenepropanamine hydrochloride]",–,20,26,46,83
20,10,10,–,"CCCCCCOc1ccc(CC(CN)c2ccc(OC)c(OC)c2)cc1 (stereo not drawn) [Example 16, .varies.-(Hexyloxy)-β-(3,4-dimethoxy)phenylbenzenepropanamine hydrochloride]",–,27,57,81,235
10,5,10,–,"CCCCCCOc1ccc(CC(CN)c2ccc(F)cc2)cc1 (stereo not drawn) [Example 26, 4(Hexyloxy)-β-(4-fluorophenyl)benzenepropanamine]",–,–,29,67,500
5,> 20,> 20,–,"CC(CCc1ccc(OCCC2CCCCC2)cc1)NC1CCCC(C(F)(F)F)C1 (stereo not drawn) [Example 39, 4-(2-Cyclohexylethoxy)-α-methyl-N-[3-(trifluoromethyl)-cyclohexyl]benzenepropanamine hydrochloride]",–,–,90,–,–
10,10,5,–,"CCCCCCOc1ccc(CC(c2ccc(OC)cc2)C(C)N)cc1 (stereo not drawn) [Example 72, 4-(Hexyloxy)-β-4-methoxyphenyl-αmethylbenzenepropanamine hydrochloride]",–,–,–,–,–
0.156,10,0.312,–,"CC(CCc1ccc(OCc2ccccc2)cc1)N(C)C (stereo not drawn) [Example 84, N,N,α-Trimethyl-4-(phenylmethoxy)benzene propanamine hydrochloride]",–,–,–,–,–
